{"source": "patent US12653796B2", "about": "“Compounds for use (in particular RIPA-56) in the prevention and/or treatment of non-alcoholic fatty liver disease” (SORBONNE UNIVERSITE, priority 2019, dated 2026)", "key": {"[1]": {"tested_on": "MLKL", "test": "Western blot of MLKL phosphorylation/activation in TNF-treated L929 cells", "format": "cell-based", "details": "within hours", "method": "FIG. 1. RIPA-56 prevents RIPK1-dependent cell death in L929 cells upon caspase inhibition and TNF stimulation. L929 cells were treated with RIPA-56 (20 μM), Nec-1 (20 μM) or vehicle for 2 h, prior to incubation with or without TNF (50 ng/mL), and analyzed for (A) morphology and (B) cell survival using MTT assay, after 20 h incubation with or without TNF; (C) Western blot analyses at different time points of incubation with TNF. Results are shown as mean±SEM; n.s., not significant; ****p<0.0001. Data are representative of three independent experiments.\nL929 cells (LGC Standards, Molsheim, France), were cultured in Dulbecco's modified Eagle's medium (DMEM) (ThermoFisher, Massachusetts, USA) supplemented with 10% fetal bovine serum (Eurobio, Courtaboeuf, France), penicillin (100 IU/ml), streptomycin (0.1 mg/ml), and L-glutamine (0.03%) (ThermoFisher). […]\nTissue samples were homogenized in NP-40 lysis buffer using a tissue grind pestle (Kimble, Rockwood, USA) or with a bead ruptor 12 (Omni International, Georgia, USA) to obtain protein lysates. Thirty μg of protein extracts from cells or tissue homogenates were separated by SDS-PAGE, transferred to polyvinylidene difluoride membrane and analyzed by immunoblotting. […]"}, "[2]": {"target": "T1, receptor-interacting protein kinase 1 (RIPK1) (Homo sapiens, UniProt Q13546)", "T1 sequence (Q13546 1-671)": "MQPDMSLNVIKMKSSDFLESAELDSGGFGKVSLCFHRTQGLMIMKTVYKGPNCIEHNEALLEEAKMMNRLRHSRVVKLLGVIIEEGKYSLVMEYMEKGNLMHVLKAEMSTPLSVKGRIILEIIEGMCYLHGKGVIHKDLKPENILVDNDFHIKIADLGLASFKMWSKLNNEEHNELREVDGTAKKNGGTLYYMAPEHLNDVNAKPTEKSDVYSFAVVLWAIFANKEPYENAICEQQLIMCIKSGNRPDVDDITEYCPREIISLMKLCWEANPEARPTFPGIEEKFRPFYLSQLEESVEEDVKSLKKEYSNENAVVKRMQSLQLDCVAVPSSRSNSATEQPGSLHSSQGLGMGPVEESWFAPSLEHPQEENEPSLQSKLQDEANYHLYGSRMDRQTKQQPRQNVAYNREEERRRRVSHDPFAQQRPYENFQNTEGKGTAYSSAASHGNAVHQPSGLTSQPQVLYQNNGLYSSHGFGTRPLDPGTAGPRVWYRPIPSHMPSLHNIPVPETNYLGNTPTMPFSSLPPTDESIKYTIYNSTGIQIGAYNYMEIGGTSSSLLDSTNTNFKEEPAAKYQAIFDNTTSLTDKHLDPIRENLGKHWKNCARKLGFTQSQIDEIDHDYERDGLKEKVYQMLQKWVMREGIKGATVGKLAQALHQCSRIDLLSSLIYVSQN", "details": "Ren et al., J Med Chem 2017; cited from earlier work"}}, "data": [{"smiles": "CCC(C)(C)C(=O)N(O)Cc1ccccc1", "note": "[RIPA-56, N-Benzyl-N-hydroxy-2,2-dimethylbutanamide]", "values": [{"measurement": "phosphorylation and activation of MLKL", "setting": "[1]", "value": "inhibited"}, {"measurement": "RIPK1 inhibitor profile", "setting": "[2]", "value": "selective and metabolically stable inhibitor"}]}]}
